# Publication PMC7999182, “Interaction of Remdesivir with Clinically Relevant Hepatic Drug Uptake Transporters” (Pharmaceutics, 2021)
# Experiments:
# OATP2B1 = target: T1, OATP2B1 (Homo sapiens, UniProt O94956); assay: Inhibition of OATP2B1-mediated estrone sulfate uptake; type: cell-based
# T1 construct: expressed in transfected cells
# T1 sequence (O94956 1-709): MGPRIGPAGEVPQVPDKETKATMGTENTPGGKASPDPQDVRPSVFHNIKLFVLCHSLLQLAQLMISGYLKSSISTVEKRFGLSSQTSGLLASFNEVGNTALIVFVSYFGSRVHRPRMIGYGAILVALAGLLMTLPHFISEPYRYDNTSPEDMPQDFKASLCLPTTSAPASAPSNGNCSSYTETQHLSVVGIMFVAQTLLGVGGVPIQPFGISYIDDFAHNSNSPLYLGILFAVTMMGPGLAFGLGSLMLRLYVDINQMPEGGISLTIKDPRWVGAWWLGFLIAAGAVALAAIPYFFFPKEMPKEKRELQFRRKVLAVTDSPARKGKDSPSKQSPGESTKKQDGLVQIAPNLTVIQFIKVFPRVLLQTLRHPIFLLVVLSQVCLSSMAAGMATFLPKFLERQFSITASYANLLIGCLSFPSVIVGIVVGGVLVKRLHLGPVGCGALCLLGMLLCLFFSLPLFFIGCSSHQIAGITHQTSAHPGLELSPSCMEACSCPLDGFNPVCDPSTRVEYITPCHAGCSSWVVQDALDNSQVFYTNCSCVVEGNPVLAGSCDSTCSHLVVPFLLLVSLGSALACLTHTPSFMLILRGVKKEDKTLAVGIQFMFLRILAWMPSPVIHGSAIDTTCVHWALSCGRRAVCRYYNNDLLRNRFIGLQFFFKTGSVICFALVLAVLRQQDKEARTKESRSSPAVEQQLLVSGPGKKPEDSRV
# From the text: Generation, cultivation and characterization of human embryonic kidney (HEK) cells stably expressing OATP1B1 refseq (=OATP1B1*1a), OATP1B1*1b, OATP1B1*5 and OATP1B1*15 [18], OATP1B3 [19], OATP2B1 [13] and OCT1 [20] have been described previously. OATP1B1 cells were cultivated in minimal essential medium (Life Technologies, Paisley, UK) and OATP1B3, OATP2B1 and OCT1 cells were cultivated in Dulbecco’s modified Eagle medium (Sigma, Darmstadt, Germany). Cultivation media were supplemented with 10% fetal calf serum, 100 U/mL penicillin and 100 µg/mL streptomycin. Cells were grown at 37 °C and 5% CO2. Functionality of the cells was confirmed by measuring uptake of prototypic substrates (see Section 2.3 and supplementary material).
# Prototypic substrate uptake was performed as described previously. For this, uptake solutions contained the respective substrate with tracer amounts of radiolabeled substrate. In case of inhibition studies, uptake solutions additionally contained different concentrations of remdesivir. […] Cells were then lysed with 0.2% sodium dodecyl sulfate and intracellular radioactivity was measured by liquid scintillation counting (Tricarb2800, PerkinElmer Life Sciences GmbH, Rodgau, Germany or Hidex 300SL TDCR liquid scintillation counter, Turku, Finland). […]
# OATP1B3 = system: OATP1B3; parameters: method as in earlier work; settings: prototypic substrate not stated; cited from earlier work
compound,measurement,setting,value
CCC(CC)COC(=O)[C@H](C)N[P@](=O)(OC[C@H]1O[C@@](C#N)(c2ccc3c(N)ncnn23)[C@H](O)[C@@H]1O)Oc1ccccc1 [Remdesivir],Effect on prototypic substrate uptake,"OATP2B1; 1 µM estrone sulfate, 30 sec uptake, different remdesivir concentrations",significant concentration-dependent inhibitory effect
same,Transporter inhibition at 10 µM,"OATP2B1; 10 µM remdesivir, estrone sulfate as substrate",inhibition
same,IC50,OATP1B3,2.1 µM
